Data: patent US20070134261A1, “Effectors of innate immunity” (priority 2001, published 2007)
Residues, ends and D or L forms follow the SMILES beside them.

Tested on: A549 human epithelial cell line
Assay: Polynucleotide array (Human Operon) of A549 cells incubated with E. coli O111:B4 LPS with or without peptide
Type: cell-based
Settings: 50 μg/ml, 4 h
Description: The A549 human epithelial cell line was maintained in DMEM (Gibco) supplemented with 10% fetal bovine serum (FBS, Medicorp). […] Total RNA was isolated using RNAqueous (Ambion, Austin, Tex.). […] DNA contamination was removed with DNA-free kit, Ambion).
A “homemade” program was used to remove background. The program calculates the bottom 10% intensity for each subgrid and subtracts this for each grid.
Peptide (50 μg/ml) and LPS (0.1 μg/ml) or LPS alone was incubated with the A549 cells for 4 h and the RNA was isolated. Five μg total RNA was used to make Cy3/Cy5 labeled cDNA probes and hybridized onto Human Operon arrays (PRHU04). The intensity of unstimulated cells is shown in the third column of Table 1. The “Ratio: LPS/control” column refers to the intensity of polynucleotide expression in LPS simulated cells divided by in the intensity of unstimulated cells. The “Ratio: LPS+ID 27/control” column refers to the intensity of polynucleotide expression in cells stimulated with LPS and peptide divided by unstimulated cells.
Peptide and LPS or LPS alone was incubated with the A549 cells for 4 h and the RNA was isolated. 5 μg total RNA was used to make Cy3/Cy5 labeled cDNA probes and hybridized onto Human Operon arrays (PRHU04). The intensity of unstimulated cells is shown in the third column of Table 2. The “Ratio: LPS/control” column refers to the intensity of polynucleotide expression in LPS-simulated cells divided by in the intensity of unstimulated cells. The other columns refer to the intensity of polynucleotide expression in cells stimulated with LPS and peptide divided by unstimulated cells.

[1] = AB007856 FEM-1-like death receptor binding protein

CSCC[C@H](NC(=O)[C@H](CO)NC(=O)[C@@H](NC(=O)[C@H](CCCCN)NC(=O)[C@H](Cc1ccccc1)NC(=O)[C@H](CS)NC(=O)[C@H](CO)NC(=O)[C@H](CCCNC(=N)N)NC(=O)[C@@H](N)CCCCN)C(C)C)C(=O)N[C@@H](CCCNC(=N)N)C(=O)NCC(=O)N[C@H](C(=O)N[C@@H](CO)C(=O)N[C@@H](CCCNC(=N)N)C(=O)N[C@@H](CCCNC(=N)N)C(=O)N[C@@H](CCCNC(=N)N)C(=O)N[C@@H](CS)C(=O)N[C@@H](CCCCN)C(=O)O)C(C)C [SEQ ID NO: 27] (H-KRSCFKVSMRGVSRRRCK-OH; N-terminus and C-terminus assumed)
Ratio: LPS + ID 27/control (AB007854 growth arrest-specific 7): 2.2 | Ratio: LPS + ID 27/control [1]: 0.6 | Ratio: LPS + ID/Ctrl [1]: 0.62 | Ratio: LPS + ID/Ctrl (AB007896 putative L-type neutral amino acid transporter): 1.82 | Ratio: LPS + ID/Ctrl (AB010894 BAI1-associated protein): 1.38 | Ratio: LPS + ID 27/control (AB014569 KIAA0669 gene product): 0.2 | Ratio: LPS + ID/Ctrl (AB023198 KIAA0981 protein): 0.43 | Ratio: LPS + ID/Ctrl (AB037722 Unknown): 0.30 | Ratio: LPS + ID 27/control (AB040057 serine/threonine protein kinase MASK): 15.8 | Ratio: LPS + ID/Ctrl (AC004849 Unknown): 0.07 | Ratio: LPS + ID 27/control (AF035309 proteasome 26S subunit ATPase 5): 1.3 | Ratio: LPS + ID/Ctrl (AF095687 brain and nasopharyngeal carcinoma susceptibility protein): 0.48 | Ratio: LPS + ID 27/control (AF112219 esterase D/formylglutathione hydrolase): 1.1 | Ratio: LPS + ID 27/control (AF131838 Unknown): 1.4 | Ratio: LPS + ID 27/control (AF151047 hypothetical protein): 1.0 | Ratio: LPS + ID 27/control (AF189009 ubiquilin 2): 1.3 | Ratio: LPS + ID 27/control (AJ001403 mucin 5 subtype B tracheobronchial): 15.9 | Ratio: LPS + ID 27/control (AK000087 hypothetical protein): 1.0 | Ratio: LPS + ID 27/control (AK000264 Unknown): 0.6 | Ratio: LPS + ID/Ctrl (AK000353 cytosolic ovarian carcinoma ag 1): 1.02 | Ratio: LPS + ID 27/control (AK000353 cytosolic ovarian carcinoma antigen 1): 1.0 | Ratio: LPS + ID 27/control (AK000366 hypothetical protein): 1.0 | Ratio: LPS + ID 27/control (AK000562 hypothetical protein): 0.6 | Ratio: LPS + ID 27/control (AK000869 hypothetical protein): 2.3 | Ratio: LPS + ID/Ctrl (AK000869 hypothetical protein): 2.34 | Ratio: LPS + ID/Ctrl (AK001239 hypothetical protein): 1.27 | Ratio: LPS + ID/Ctrl (AK001440 hypothetical protein): 0.43 | Ratio: LPS + ID 27/control (AK001569 hypothetical protein): 1.2 | Ratio: LPS + ID 27/control (AK001589 hypothetical protein): 1.3 | Ratio: LPS + ID/Ctrl (AK001589 hypothetical protein): 1.26 | Ratio: LPS + ID/Ctrl (AK001904 hypothetical protein): 5.93 | Ratio: LPS + ID 27/control (AL031983 Unknown): 5.1 | Ratio: LPS + ID/Ctrl (AL031983 Unknown): 5.06 | Ratio: LPS + ID 27/control (AL050337 interferon gamma receptor 1): 1.0 | Ratio: LPS + ID 27/control (AL050348 Unknown): 1.7 | Ratio: LPS + ID 27/control (AL096739 Unknown): 0.5 | Ratio: LPS + ID/Ctrl (AL122111 hypothetical protein): 0.21 | Ratio: LPS + ID 27/control (AL137376 Unknown): 0.6 | Ratio: LPS + ID/Ctrl (AL137376 Unknown): 0.64 | Ratio: LPS + ID 27/control (AL137614 hypothetical protein): 1.0 | Ratio: LPS + ID 27/control (D14043 CD164 antigen_sialomucin): 1.0 | Ratio: LPS + ID 27/control (D14539 myeloid/lymphoid or mixed-lineage leukemia translocated to 1): 3.1 | Ratio: LPS + ID 27/control (D42085 KIAA0095 gene product): 1.2 | Ratio: LPS + ID 27/control (D87451 ring finger protein 10): 2.1 | Ratio: LPS + ID/Ctrl (D87451 ring finger protein): 2.1 | Ratio: LPS + ID 27/control (J03925 integrin_alpha M): 4.2 | Ratio: LPS + ID 27/control (J04058 electron-transfer-flavoprotein alpha polypeptide): 1.2 | Ratio: LPS + ID 27/control (J04513 fibroblast growth factor 2): 0.9 | Ratio: LPS + ID/Ctrl (J05068 transcobalamin 1): 1.78 | Ratio: LPS + ID 27/control (K02581 thymidine kinase 1 soluble): 3.5 | Ratio: LPS + ID 27/control (L04510 ADP-ribosylation factor): 1.4 | Ratio: LPS + ID/Ctrl (L04510 ADP-ribosylation factor): 1.4 | Ratio: LPS + ID/Ctrl (L19185 thioredoxin-dependent peroxide reductase 1): 0.18 | Ratio: LPS + ID 27/control (L25931 lamin B receptor): 0.7 | Ratio: LPS + ID 27/control (L42243 interferon receptor 2): 5.2 | Ratio: LPS + ID 27/control (M23379 RAS p21 protein activator): 2.8 | Ratio: LPS + ID 27/control (M32315 tumor necrosis factor receptor superfamily member 1B): 0.4 | Ratio: LPS + ID 27/control (M54915 pim-1 oncogene): 0.6 | Ratio: LPS + ID/Ctrl (M54915 pim-1 oncogene): 0.63 | Ratio: LPS + ID 27/control (M57230 interleukin 6 signal transducer): 1.0 | Ratio: LPS + ID/Ctrl (M95678 phospholipase C beta 2): 2.38 | Ratio: LPS + ID/Ctrl (NM_001148 ankyrin 2_neuronal): 0.82 | Ratio: LPS + ID 27/control (NM_001663 ADP-ribosylation factor 6): 1.7 | Ratio: LPS + ID 27/control (NM_001940 dentatorubral-pallidoluysian atrophy): 1.2 | Ratio: LPS + ID 27/control (NM_002309 leukemia inhibitory factor): 1.9 | Ratio: LPS + ID 27/control (NM_004862 LPS-induced TNF-alpha factor): 1.1 | Ratio: LPS + ID 27/control (NM_006092 caspase recruitment domain 4): 0.5 | Ratio: LPS + ID 27/control (NM_006325 RAN member RAS oncogene family): 1.4 | Ratio: LPS + ID 27/control (NM_013241 FH1/FH2 domain-containing protein): 0.6 | Ratio: LPS + ID 27/control (NM_013400 replication initiation region protein): 2.0 | Ratio: LPS + ID 27/control (NM_016216 RNA lariat debranching enzyme): 10.9 | Ratio: LPS + ID 27/control (NM_016237 anaphase-promoting complex subunit 5): 0.9 | Ratio: LPS + ID/Ctrl (NM_016382 NK cell activation inducing ligand NAIL): 0.81 | Ratio: LPS + ID 27/control (U19796 melanoma-associated antigen): 0.6 | Ratio: LPS + ID 27/control (U26648 syntaxin 5A): 1.4 | Ratio: LPS + ID 27/control (U34252 aldehyde dehydrogenase 9): 1.2 | Ratio: LPS + ID 27/control (U43083 guanine cription factor 1): 1.6 | Ratio: LPS + ID/Ctrl (U52522 partner of RAC1): 1.35 | Ratio: LPS + ID 27/control (U52960 SRB7 homolog): 0.8 | Ratio: LPS + ID 27/control (U60205 sterol-C4-methyl oxidase-like): 0.8 | Ratio: LPS + ID 27/control (U78027 galactosidase_alpha): 1.1 | Ratio: LPS + ID/Ctrl (U78166 Ric like): 0.20 | Ratio: LPS + ID 27/control (U78166 Ric-like expressed in neurons): 0.2 | Ratio: LPS + ID 27/control (U91316 cytosolic acyl coenzyme A thioester hydrolase): 1.4 | Ratio: LPS + ID 27/control (U94831 transmembrane 9 superfamily member 1): 1.5 | Ratio: LPS + ID/Ctrl (X03066 MHC class II DO beta): 4.90 | Ratio: LPS + ID/Ctrl (X06614 retinoic acid receptor_alpha): 0.77 | Ratio: LPS + ID/Ctrl (X07173 inter-alpha inhibitor H2): 0.44 | Ratio: LPS + ID 27/control (X13334 CD14 antigen): 1.1 | Ratio: LPS + ID/Ctrl (X16940 smooth muscle enteric actin γ2): 3.24 | Ratio: LPS + ID 27/control (X51688 cyclin A2): 1.0 | Ratio: LPS + ID 27/control (X56777 zona pellucida glycoprotein 3A): 1.4 | Ratio: LPS + ID 27/control (X70394 zinc finger protein 146): 1.7 | Ratio: LPS + ID 27/control (X76104 death-associated protein kinase 1): 1.8 | Ratio: LPS + ID 27/control (X76785 integration site for Epstein-Barr virus): 1.9 | Ratio: LPS + ID 27/control (X80692 mitogen-activated protein kinase 6): 1.3 | Ratio: LPS + ID 27/control (X85750 monocyte to macrophage differentiation-associated): 1.1 | Ratio: LPS + ID 27/control (X92896 Unknown): 1.5 | Ratio: LPS + ID 27/control (X92972 protein phosphatase 6 catalytic subunit): 1.1 | Ratio: LPS + ID 27/control (Z99756 Unknown): 14.0
